Read-outs that look alike come from different tables or passages of the source.
System: rat liver tissue
Protocol: From the nucleic acid hybridization data, a prediction score is calculated for that sample and compared to a reference score from a toxicity reference database according to the following equation. The sample prediction score=ΣwiR^FC^i. “i” is the index number for each gene in a gene expression profile to be evaluated. “wi” is the PLS weight (or PLS score, see Table 2 for an exemplary list of PLS scores for a general kidney toxicity model) for each gene. “R^FC^i” is the RMA fold-change value for the i^th gene, as determined from a normalized RMA matrix of gene expression data from the sample (described above). The PLS weight multiplied by the RMA fold-change value gives a gene regulation score for each gene, and the regulation scores for all the individual genes are added to give a prediction score for the sample.
To establish a toxicity prediction score cut-off value for a toxicity model, the true-positive and false positive rates for each possible score cut-off value are computed, using the scores from all tox and non-tox samples in the training set. This generates an ROC curve, which we use to set the cut-off score at the point on the ROC curve corresponding to ˜5% false positive rate. For example, in a kidney toxicity model of Table 2, a cut-off prediction score is about 0.318.
The conversion algorithm was tested using the liver toxicity model described in U.S. Provisional Application Ser. No. 60/559,949 and herein incorporated by reference.
The first step to using a conversion algorithm is to map microarray fragments. The RGU34 A microarray fragments which comprise the liver toxicity model were mapped to the RAE2.0 microarray. The liver toxicity model is based on 1,100 Affymetrix GeneChip® RGU34 A microarray fragments. […] See Affymetrix's “User's Guide to Product Comparison Spreadsheets” which is herein incorporated by reference.
Once the microarray fragments are mapped, training samples are selected to calculate the conversion model weights. The inventors searched Gene Logic's ToxExpress® reference database, a database which is built on the Affymetrix RGU34A platform, for samples that covered a large amount of interquartile range with respect to signal intensity. […] The samples maximized Ei(Max(Xij)−Min(Xij)), where i indexes genes and j indexes samples.
For this reason, a training set consisting of 100 compounds and vehicles from rat liver tissue was selected.
The 100 training samples were used to train the weights in the conversion algorithm. This step is important because it provides for the quantitative aspect of the conversion. The weight training was performed based on a multiple regression analysis with probe values as the independent variables and RMA expression as the sum of the dependent variables.
Test samples were evaluated using the trained conversion algorithm. The multiple regression model was built on the 11 perfect match probe intensities and generated a predicted RGU34 expression value from a weighted sum of RAE 2.0 probe values. Each test array was scaled to an average probe intensity of 10 (log scale). The conversion algorithm used is given as:
Yi^RGU34=βio+Σβij LOG(Xij^RAE2.0/S)

[1] = RAE2.0 converted RMA data, liver predictive model
[2] = RGU34 RMA data, liver predictive model

SMILES	number of test samples predicted as toxic out of the total number of samples for that compound [1]	number of test samples predicted as toxic out of the total number of samples for that compound [2]	number of test samples predicted as toxic out of the total number of samples for that compound (rat, in vivo)
CN(C)CCC=C1c2ccccc2CCc2ccccc21 [Amitryptilene]	2/2	1/2	–
CN(C)CCC(c1ccc(Cl)cc1)c1ccccn1 (stereo not drawn) [Chlorpheniramine, chlorpheniramine]	–	–	0/3
CCOC(=O)C(C)(C)Oc1ccc(Cl)cc1 [Clofibrate]	–	–	0/3
O=C(O)c1cc(-c2ccc(F)cc2F)ccc1O [Diflunisal, diflunisal]	–	–	2/3
C[C@]12CC[C@@H]3c4ccc(O)cc4CC[C@H]3[C@@H]1CC[C@@H]2O [Estradiol, estradiol]	–	–	3/3
CCSCC[C@H](N)C(=O)O [Ethionine, ethionine]	3/3	3/3	–
CCC1(c2ccccc2)C(=O)NC(=O)NC1=O [Phenobarbital, phenobarbital]	3/3	3/3	–
CN(CCOc1ccc(CC2SC(=O)NC2=O)cc1)c1ccccn1 (stereo not drawn) [Rosiglitazone, rosiglitazone]	–	–	0/3
[H]/N=C(/N)N[C@H]1[C@H](O)[C@@H](O)[C@H](O[C@@H]2O[C@@H](C)[C@](O)(C=O)[C@H]2O[C@@H]2O[C@@H](CO)[C@H](O)[C@@H](O)[C@@H]2NC)[C@@H](N/C(N)=N\[H])[C@@H]1O [Streptomycin, streptomycin]	–	–	0/3
